Assay results reported in patent US20090010880A1 (priority 2007, published 2009).
≈ marks a conversion by molar mass, not a printed value. Read-outs that look alike come from different tables or passages of the source.

What was measured:
YFV (Yellow Fever Virus) [1] = assay: microbe, parasite or virus in culture; format: cell-based; conditions: read-out: CPEA EC50
DV (Dengue Virus) [2] = assay: Yield Reduction Assay (YRA), Dengue virus in BHK cells; format: cell-based
viral protein NS3 = assay: Western blot analysis of viral NS3 protein; format: cell-based, Bovine Viral Diarrhea Virus; conditions: 25 μg/ml, 24 hours post infection, MOI of 10
Protocol: MDBK cells were infected with NADL strain of BVDV (MOI 10) in the presence or absence of 25 μg/ml of geneticin. Based on previous publications, the 18-24 h post-infection time point was chosen to determine viral proteins in infected cells. […] Thus, at 24 h post-infection, cell media was removed and cells were washed several times with PBS. Then, 2× concentrated electrophoresis sample buffer was added, cells were scraped from the dish and transferred to a microcentrifuge tube. To reduce viscosity, the samples were sonicated briefly or passed several times through a 26-gauge needle and boiled for 5 min. Fifteen micrograms of lysate sample were run on 10% SDS-PAGE and then transblotted. After blocking for 1 h in blocking buffer (5% dry milk in 0.05% Tween 20 in PBS), membranes were incubated with primary antibody (MAb 20.10.6) diluted 1:1,000 in blocking buffer for 60 min at room temperature and washed with 0.05% Tween 20 in PBS. After incubation with secondary antibody (anti-mouse IgG-HRP; Sigma) diluted 1:200 in blocking buffer for 60 min at room temperature, NS3 was detected with the Amersham ECL kit according to the manufacturer's instructions (Amersham Biosciences, Piscataway, N.J., USA).

[3] = system: BVDV (Bovine Viral Diarrhea Virus); assay: Cytopathic Effect Assay (CPEA), BVDV in BND cells; format: cell-based; conditions: Bovine viral diarrhea virus isolates and strains
[4] = Cytotoxicity (CC50) in BHK cells; format: cell-based; conditions: hamster
YFV (Yellow Fever Virus) [5] = assay: microbe, parasite or virus in culture; format: cell-based; conditions: read-out: YRA EC50
[6] = system: BVDV (Bovine Viral Diarrhea Virus); assay: Cytopathic Effect Assay (CPEA) / cell viability, BVDV in MDBK cells; conditions: for EC50: Bovine viral diarrhea virus isolates and strains, MDBK
[7] = system: BVDV (Bovine Viral Diarrhea Virus); assay: microbe, parasite or virus in culture; format: cell-based; conditions: for inhibition of virus yield: 6-25 μg/ml, 24 and 48 hours post infection
[8] = Cytotoxicity / cell viability in MDBK cells; format: cell-based, Bovine; conditions: bovine, MDBK cells
[9] = system: MDBK (Madin-Darby Bovine Kidney) cells; assay: Cytotoxicity / cell viability in MDBK cells; format: cell-based
DV (Dengue Virus) [10] = assay: Cytopathic Effect Assay (CPEA), Dengue virus in BHK cells; format: cell-based
[11] = Cytotoxicity (CC50) in BND cells; format: cell-based, Bottle Nose Dolphin; conditions: bottlenose dolphin, BND skin cells
BVDV = assay: Antiviral activity against BVDV (structure-function analysis); format: cell-based, Bovine Viral Diarrhea Virus

Molecule: CN[C@@H]1[C@@H](O)[C@@H](O[C@@H]2[C@@H](O)[C@H](O[C@H]3O[C@H]([C@@H](C)O)[C@@H](O)[C@H](O)[C@H]3N)[C@@H](N)C[C@H]2N)OC[C@]1(C)O [Geneticin]
- EC50 (YFV (Yellow Fever Virus) [1]): 20 µg/mL (≈ 40.3 µM)
- EC50 (DV (Dengue Virus) [2]): 5 µg/mL (≈ 10.1 µM)
- synthesis of the viral protein NS3 (viral protein NS3): no effect
- EC50 [3]: 50 µg/mL (≈ 101 µM)
- CC50 [4]: 160 µg/mL (≈ 322 µM)
- EC50 (YFV (Yellow Fever Virus) [5]): 10 µg/mL (≈ 20.1 µM)
- EC50 ([6]; read-out: CPEA EC50, BVDV, MDBK cells): ~4 µg/mL (≈ 8.06 µM)
- EC50 ([6]; read-out: EC50 concentration for antiBVDV activity, BVDV): 4 µg/mL (≈ 8.06 µM)
- viral production [7]: below 10 % of control
- EC50 ([7]; Bovine viral diarrhea virus isolates and strains, MDBK, BVDV, MDBK cells, read-out: YRA EC50): ~4 µg/mL (≈ 8.06 µM)
- inhibition of virus yield ([7]; NADL strain): 10-100 fold
- inhibition of virus yield ([7]; NY-1 strain): 10-100 fold
- CC50 [8]: 400 µg/mL (≈ 806 µM)
- MDBK cell viability (uninfected) ([9]; 31-250 μg/ml, 72 hours): no effect
- concentration with cell toxicity (downward curve of cell viability) ([9]; high doses): above 400 μg/ml
- EC50 (DV (Dengue Virus) [10]): 4 µg/mL (≈ 8.06 µM)
- CC50 [11]: > 2000 µg/mL

Molecule: CC(=O)O[C@H]1C[C@@]2(C)[C@@H](C[C@@H](O)[C@H]3[C@@]4(C)CC[C@@H](O)[C@@H](C)[C@@H]4CC[C@@]32C)/C1=C(\CCC=C(C)C)C(=O)O [fusidic acid]
- antiviral activity against BVDV (BVDV): inactive

Molecule: NC[C@@H]1O[C@H](O[C@H]2[C@@H](O)[C@H](O[C@@H]3[C@@H](O)[C@H](N)C[C@H](N)[C@H]3O[C@H]3O[C@H](CO)[C@@H](O)[C@H](O)[C@H]3N)O[C@@H]2CO)[C@H](N)[C@@H](O)[C@@H]1O [paromomycin]
- antiviral activity against BVDV (BVDV): no antiviral activity

Molecule: gentamicin
- cell viability of cpBVDV-infected cells (cytoprotection against NADL) ([6]; NADL, MDBK cells, 12 μg/ml per drug): decreased the cell viability
